# Test results from patent US20210292765A1, “COMPOSITIONS COMPRISING INTERMEDIATE NON-CODING RNA REGULATORS MODULATING THE EXPRESSION OF ETV6 OR FOXO1 AND USES THEREOF” (University of Exeter, priority 2018, published 2021).
# Marks after values point to notes of the source that are not given here.
# Experiments:
# Assay type in all cases: cell-based
# [1] = system: late passage primary human fibroblasts; test: Cellular senescence by SA-β-Gal staining; settings: gene knockdown with morpholino oligonucleotides (10 μM)
# [2] = system: late passage primary human fibroblasts; test: Cell proliferation index by Ki67 immunofluorescence; settings: for increase in proliferative index: gene knockdown with morpholino oligonucleotides (10 μM)
# Protocol: The proliferative capacity of treated cells was assessed by Ki67 and BrdU staining and by cell counts. Late passage primary human fibroblasts at PD=63 were seeded at 1×10^4 cells per well in 3 biological replicates in 24-well plates, allowed to grow for 10 days and then assayed for cell proliferation by ki67 staining. For assessment of cells in S phase, late passage primary human fibroblasts at PD=63 were seeded at 1×10^4 cells per coverslip as 3 biological replicates in 24-well plates, allowed to grow for 10 days and then were incubated with 5-Bromo-2′-deoxy-uridine (BrdU) for 24 hrs. BrdU incorporation was determined by the 5-Bromo-2′-deoxy-uridine labeling and detection kit I following instructions of the manufacturer (Roche Molecular Biochemicals). BrdU positive cells were visualized and counted by fluorescence microscopy. Cell counts were carried out manually in 3 biological replicates in treated and vehicle-only cultures following trypsinisation and suspension of cells and are presented as mean (+/−SEM). Following treatment, cells were fixed for 10 min with 4% PFA and permeabilized with 0.025% Triton and 10% serum in PBS for 1 hour. Ki-67 staining was carried out by rabbit monoclonal antibody (ab16667, Abcam, UK) at a 1:400 dilution and samples were incubated overnight at 4° C., followed by FITC-conjugated secondary goat anti-rabbit antibody (1:400) for 1 hour, and nuclei were counterstained with DAPI. Coverslips were mounted on slides in DAKO fluorescence mounting medium (S3023; Dako, Santa Clara, USA). The proliferation index was determined by counting the percentage of Ki67 positive cells from at least 400 nuclei from each biological replicate at 400× magnification under a Leica D4000 fluorescence microscope.
# [3] = system: late passage primary human fibroblasts; test: CDKN2A (p16) and CDKN1A (p21) expression by qRTPCR; settings: gene knockdown with morpholino oligonucleotides (10 μM)
# [4] = system: late passage primary human fibroblast cells; test: SASP protein levels in culture medium (MesoScale multiplex ELISA); settings: 24 hrs, culture medium from senescent cells
# Protocol: Late passage primary human fibroblast cells at PD=63 were seeded at 6×10^4 cells per well in a 6 well plate, cultured for 10 days and then treated with at 1 μM or 10 μM trametinib (MEK/ERK inhibitor) or SH-6 (AKT inhibitor) for 24 hours. Cell supernatants were then harvested and stored at −80° C. Levels of GMCSF, IFNγ, IL1β, IL2, IL6, IL8, IL10, IL-12p70, and TNFα SASP components were measured in cell supernatants from treated and vehicle-only control cells using the K15007B MesoScale Discovery multiplex ELISA immunoassay (MSD, Rockville, USA) in 4 biological replicates. Proteins were quantified relative to a standard curve using a Sector Imager SI-6000 according to the manufacturer's instructions.
# [5] = system: senescent primary human fibroblasts; test: Splicing factor transcript expression by qRTPCR (TLDA); settings: 24 hrs, control = 1.00
# Protocol: Late passage primary human fibroblasts at PD=63 were seeded at 6×10^4 cells per well as 3 biological replicates in 6-well plates, allowed to grow for 10 days and then treated with the ERK inhibitor trametinib or the AKT inhibitor SH-6 at 1 μM or 10 μM for 24 hrs. Vehicle (DMSO) only controls were also included under the same growth conditions. The expression levels of 20 splicing factor transcripts previously associated with age, replicative senescence or lifespan in our previous work (Harries et al. 2011; Holly et al. 2013; Lee et al. 2016) were then assessed by qRTPCR. RNA was extracted using TRI Reagent® (Life Technologies, Foster City USA) according to the manufacturer's instructions. Total RNA (100 ng) was reverse transcribed in 20 μl reactions using the Superscript III VILO kit (Life Technologies). Transcript expression was then quantified in duplicate for each biological replicate using TaqMan Low Density Array (TLDA) on QuantStudio 12K Flex (Applied Biosystems, Foster City, USA). Cycling conditions were 1 cycle each of 50° C. for 2 min, 94.5° C. for 10 min and then 40 cycles of 97° C. for 30 s and 57.9° C. for 1 min. The reaction mixes included 50 μl TaqMan Fast Universal PCR Mastermix (Life Technologies), 30 μl dH2O and 20 μl cDNA template. 100 μl reaction mixture was dispensed into the TLDA card chamber and centrifuged twice for 1 min at 1000 rpm. Transcript expression was assessed by the Comparative Ct approach, relative to the IDH3B, GUSB and PP/A endogenous control genes and normalised to their expression in RNA from untreated late passage cells.
compound,measurement,setting,value
FOXO1 morpholino: Antisense morpholino to 5′ untranslated region of FOXO1: TCCCCCAGCCGCAGGAGAGCCAAGA (all phosphorodiamidate morpholino (PMO)),reduction in senescent cell load as measured by SA-β-Gal staining,[1],~40%
same,increase in proliferative index,[2],19%
same,reduction in CDKN2A expression,[3],43%
ETV6 morpholino: Antisense morpholino to 5′ untranslated region of ETV6: CATGTCTCACAGCGAGAGAGATCAG (all phosphorodiamidate morpholino (PMO)),reduction in senescent cell load as measured by SA-β-Gal staining,[1],~18%
same,increase in proliferative index,[2],36%
same,reduction in CDKN2A expression,[3],24%
"CC(=O)Nc1cccc(-n2c(=O)n(C3CC3)c(=O)c3c(Nc4ccc(I)cc4F)n(C)c(=O)c(C)c32)c1 [Trametinib, trametinib]",increase in proliferative index (Ki67 staining),[2]; low dose (1 μM),31%
same,GM-CSF SASP protein expression,[4]; 1 uM,24.65*** percentage of the control value
same,IL1b SASP protein expression,[4]; 1 uM,156.70** percentage of the control value
same,IL2 SASP protein expression,[4]; 1 uM,50.72** percentage of the control value
same,IL6 SASP protein expression,[4]; 1 uM,77.75 percentage of the control value
same,IL8 SASP protein expression,[4]; 1 uM,44.42** percentage of the control value
same,IL10 SASP protein expression,[4]; 1 uM,34.37*** percentage of the control value
same,IL12p70 SASP protein expression,[4]; 1 uM,69.64 percentage of the control value
same,INF-g SASP protein expression,[4]; 1 uM,95.08 percentage of the control value
same,TNFa SASP protein expression,[4]; 1 uM,104.61 percentage of the control value
same,GM-CSF SASP protein expression,[4]; 10 uM,9.85*** percentage of the control value
same,IL1b SASP protein expression,[4]; 10 uM,50.35** percentage of the control value
same,IL2 SASP protein expression,[4]; 10 uM,14.39*** percentage of the control value
same,IL6 SASP protein expression,[4]; 10 uM,33.57*** percentage of the control value
same,IL8 SASP protein expression,[4]; 10 uM,5.33*** percentage of the control value
same,IL10 SASP protein expression,[4]; 10 uM,86.01 percentage of the control value
same,IL12p70 SASP protein expression,[4]; 10 uM,77.78 percentage of the control value
same,INF-g SASP protein expression,[4]; 10 uM,106.33 percentage of the control value
same,TNFa SASP protein expression,[4]; 10 uM,118.65 percentage of the control value
same,AKAP17A splicing factor mRNA expression,[5]; 1 uM,2.01***
same,HNRNPA0 splicing factor mRNA expression,[5]; 1 uM,2.38***
same,HNRNPA1 splicing factor mRNA expression,[5]; 1 uM,1.52*
same,HNRNPA2B1 splicing factor mRNA expression,[5]; 1 uM,1.53*
same,HNRNPD splicing factor mRNA expression,[5]; 1 uM,1.79*
same,HNRNPH3 splicing factor mRNA expression,[5]; 1 uM,1.89***
same,HNRNPK splicing factor mRNA expression,[5]; 1 uM,1.68***
same,HNRNPM splicing factor mRNA expression,[5]; 1 uM,1.46*
same,HNRNPUL2 splicing factor mRNA expression,[5]; 1 uM,1.63***
same,IMP3 splicing factor mRNA expression,[5]; 1 uM,1.77***
same,LSM2 splicing factor mRNA expression,[5]; 1 uM,0.85
same,LSM14A splicing factor mRNA expression,[5]; 1 uM,1.61**
same,PNISR splicing factor mRNA expression,[5]; 1 uM,1.63**
same,SF3B1 splicing factor mRNA expression,[5]; 1 uM,1.93***
same,SRSF1 splicing factor mRNA expression,[5]; 1 uM,1.69*
same,SRSF2 splicing factor mRNA expression,[5]; 1 uM,2.07**
same,SRSF3 splicing factor mRNA expression,[5]; 1 uM,1.64***
same,SRSF6 splicing factor mRNA expression,[5]; 1 uM,2.68***
same,SRSF7 splicing factor mRNA expression,[5]; 1 uM,2.38***
same,TRA2B splicing factor mRNA expression,[5]; 1 uM,1.66*
same,AKAP17A splicing factor mRNA expression,[5]; 10 uM,0.74**
same,HNRNPA0 splicing factor mRNA expression,[5]; 10 uM,1.11
same,HNRNPA1 splicing factor mRNA expression,[5]; 10 uM,0.49***
same,HNRNPA2B1 splicing factor mRNA expression,[5]; 10 uM,0.70***
same,HNRNPD splicing factor mRNA expression,[5]; 10 uM,0.75**
same,HNRNPH3 splicing factor mRNA expression,[5]; 10 uM,0.95
same,HNRNPK splicing factor mRNA expression,[5]; 10 uM,1.02
same,HNRNPM splicing factor mRNA expression,[5]; 10 uM,0.69***
same,HNRNPUL2 splicing factor mRNA expression,[5]; 10 uM,0.94
same,IMP3 splicing factor mRNA expression,[5]; 10 uM,0.97
same,LSM2 splicing factor mRNA expression,[5]; 10 uM,0.82
same,LSM14A splicing factor mRNA expression,[5]; 10 uM,1.18
same,PNISR splicing factor mRNA expression,[5]; 10 uM,1.11
same,SF3B1 splicing factor mRNA expression,[5]; 10 uM,0.96
same,SRSF1 splicing factor mRNA expression,[5]; 10 uM,0.68**
same,SRSF2 splicing factor mRNA expression,[5]; 10 uM,0.86*
same,SRSF3 splicing factor mRNA expression,[5]; 10 uM,0.72***
same,SRSF6 splicing factor mRNA expression,[5]; 10 uM,0.69***
same,SRSF7 splicing factor mRNA expression,[5]; 10 uM,0.57***
same,TRA2B splicing factor mRNA expression,[5]; 10 uM,0.73**
